Legend:
Bak = Bak protein level and Bak foci (Western blot, confocal microscopy); type: cell-based, human
Method: (§1) Immunoblot analysis. Cells were seeded in 60mm plates as described above and treated accordingly. Cells were lifted by gently scraping the plates, washed once with ice cold PBS and then lysed in lysis buffer (PBS, 1% Triton X-100, 10% glycerol) containing protease inhibitors pepstatin A (0.5 μg/ml), leupeptin (0.5 μg/ml), aprotinin (5 μg/ml), and PMSF (100 μg/ml) for 10 minutes on ice. Insoluble material was removed by centrifugation at 14,000 rpm for 15 minutes at 4° C. The supernatants were then supplemented with SDS at a final concentration of 2% and stored at −80° C. Protein concentrations were determined using the DC Protein Assay (BioRad Laboratories; Hercules, CA, USA) according to the manufacturer's instructions. 50 μg of protein per sample (unless otherwise indicated) were separated on NuPAGE 4-12% Bis-Tris gels (Invitrogen; Carlsbad, CA, USA) and transferred to nitrocellulose membranes (BioRad). Following transfer, membranes were blocked for 1 hour at room temperature in Tris-buffered saline (TBS) containing 0.1% Tween-20 and 5% nonfat dry milk and incubated overnight at 4° C. with primary antibody at a dilution of 1:2,000(actin), 1:1,000(cytochrome c, COX IV, Bax, Bak, p53, p38, P-p38), 1:500(P-JNK, JNK), 1:250 (AC, p73), or 1:400(LAMP-1, cathepsin B). Overnight incubations were performed in 5% milk in TBS-Tween. Following overnight incubation, membranes were washed three times for 10 minutes each in TBS-Tween and incubated for 1 hour at room temperature with secondary antibody in 5% milk TBS-Tween at a dilution 1:5,000 (goat anti-mouse IgG) or 1:50,000 (goat anti-rabbit). Membranes were then washed three times more and incubated for 5 minutes at room temperature with Super Signal HRP substrate (Pierce Biotechnology Inc.; Rockford, IL, USA).
Confocal Microscopy and Immunocytochemistry. DU145 cells were grown in 4.3 cm^2 chamber slides (Nalge Nunc) and transfected with YFPmito alone or with the dominant-negative inhibitor of Drp1(K38A) (64) using FuGENE6 (Roche; Indianapolis, IN) according to the manufacturer's instructions using 1 μg of total DNA per chamber. 24 hr after transfection and 30 min prior to treatment with 15 μM LCL204, cells were exposed to zVAD-fmk (50 μM). The slides were fixed with 4% paraformaldehyde for 20 min then permeabilized with 0.2% Triton X-100 for 15 min, followed by blocking with 4% bovine serum albumin for 45 min at RT. Cells were probed with rabbit polyclonal 2-14 anti-Bak antibody (1:5000; BioChem) for 2 hr then stained with goat anti-rabbit Alexa Fluor 543 antibodies (1:250; Molecular Probes) for 45 min. After washing, cells were imaged using the 63x objective of an LSM 510 Zeiss confocal microscope.

LAMP-1 = assay: Immunoblot of LAMP-1; type: cell-based, human; conditions: DU145 cells, 12 hours LCL204
Method: as §1, with “Following overnight incubation, membranes were washed three times for 10 minutes each in TBS-Tween and incubated for 1 hour at room temperature with secondary antibody in 5% milk TBS-Tween at a dilution 1:5,000 (goat anti-mouse IgG) or 1:50,000 (goat anti-rabbit). Membranes were then washed three times more and incubated for 5 minutes at room temperature with Super Signal HRP substrate (Pierce Biotechnology Inc.; Rockford, IL, USA).” left out

JNK = assay: Immunoblot of phosphorylated JNK; type: cell-based, human; conditions: DU145 and PC-3 cells
Method: as §1, with “Following overnight incubation, membranes were washed three times for 10 minutes each in TBS-Tween and incubated for 1 hour at room temperature with secondary antibody in 5% milk TBS-Tween at a dilution 1:5,000 (goat anti-mouse IgG) or 1:50,000 (goat anti-rabbit). Membranes were then washed three times more and incubated for 5 minutes at room temperature with Super Signal HRP substrate (Pierce Biotechnology Inc.; Rockford, IL, USA).” left out

[1] = tested on: five different PCa cell lines; assay: MTS cell viability assay, LCL204 treatments; type: cell-based, human; conditions: 24 hours treatment
Method: Cell lines. The human PCa cell lines DU145, LNCaP, DuPro, and PC-3 were purchased from ATCC (Manassas, Va., USA), and PPC-1 cells were from Dr. Yi Lu at the University of Tennessee (Memphis, Tenn.). All cells were cultured in RPMI 1640 (Mediatech Inc.; Herndon, Va., USA) supplemented with 10% heat-inactivated BGS (Hyclone; Logan, Utah, USA). Cells were maintained in 5% CO2 at 37° C. All experiments were performed in RPMI 1640 supplemented with 2% heat-inactivated BGS.
MTS cytotoxicity assays for LCL204 treatments. Cell viability was determined using the CellTiter 96 AQueous One Solution Cell Proliferation Assay (Promega; Madison, Wis., USA). 1×10^4 cells per well were seeded in 96-well plates overnight. The next day media was removed and replaced with either 100 μl media with vehicle control or media containing LCL204 at desired concentrations. Assays were carried out according to manufacturer's instruction as previously described (60). For experiments using enzyme inhibitors and LCL204, media was removed and replaced with 50 μl media containing vehicle only or indicated inhibitor. Cells were pretreated 1 hour at 37° C. before adding 50 μl media containing vehicle, inhibitor only, LCL204 only (2× concentration), or a combination. The remainder of the assay was carried out as described above.

lysosomes of DU145 cells = assay: Lysosomal stability assay (LysoTracker Red); type: cell-based, human
Method: Lysosoinal stability assay. Lysosomal stability was measured using the fluorescent dye LysoTracker Red (LTR). Cells were seeded overnight in 60 mm plates. The next day, medium was removed and replaced with medium containing 200 nM LTR. Cells were loaded with LTR for 30 minutes at 37° C. LTR was removed and cells were washed once with PBS, then medium containing the treatment was added for the indicated time. After treatment, cells were lifted with trypsin, washed once in PBS, and resuspended in 0.5 mL growth medium. LTR fluorescence was measured using FACS analysis (564-606 nm) as above. A decrease in fluorescence intensity corresponded to an increase in lysosomal pH, and a minimum of 10,000 events were scored for each sample.

DU145 xenografts = assay: DU145 prostate cancer xenografts in nude mice
Excerpt: One of the problems with cancer gene therapy as it is currently practiced is the issue of delivery of gene therapy vectors to every tumor cell in order to effect death of the tumor. […] The inventors devised a model of molecular cell killing in a solid tumor in which only perhaps up to 30% of the cells are infected by the virus. Since the ceramide analogs of the invention are acid CDase inhibitors which sensitize the cells to this type of cell death, an in vivo experiment in which prostate cancer xenografts, in this case DU145 cells, were grown in nude mice and treated sequentially with the acid Cdase inhibitor LCL204 followed by the AdGFPFasL virus. […] The LCL204 was administered at 0, 72 and 144 hours and the virus (1×10^9 pfu) at 10 and 82 hours.

CCCCCCCCCCCCCCN[C@H](CO)[C@H](O)c1ccc([N+](=O)[O-])cc1.Cl [LCL204, (1R,2R) D-threo-2-N-Tetradecylamino-1-(4′-nitrophenyl)-1,3-propandiol hydrochloride]
Bak protein levels over time (Bak; DU145 and PC-3 cells, 10 μM, 12 hours): accumulated Bak protein
Bak protein levels versus concentration (Bak; DU145 cells, 12-hour treatment): concentration-dependent up-regulation
Bak foci on the mitochondria membrane (Bak; DU145 cells, 20 hours, confocal microscopy): formation of Bak foci was detected
Bak and p73 levels (Bak; PPC-1/pcDNA3 cells, 7.5 μM, 5 hours): up-regulation of both Bak and p73 levels
LAMP-1 expression (LAMP-1): increases
phosphorylation and activation of JNK (JNK): beginning as early as three hours
cell death [1]: concentration-dependent cell death in the micromolar range
onset of the effect on lysosomal pH (lysosomes of DU145 cells; DU145 cells, 10 μM): as early as five minutes
shift in LTR fluorescence (rise in lysosomal pH) (lysosomes of DU145 cells; DU145 cells, 1 hour, LCL204 10 μM, C6-ceramide 30 μM, B13 20 μM): induced the shift in LTR fluorescence
lysosome destabilization versus concentration (lysosomes of DU145 cells; DU145 cells, one hour): destabilized lysosomes in a concentration-dependent manner
earliest destabilization of the lysosomes (lysosomes of DU145 cells; prostate cancer cells): 5 min
tumor burden, combination of LCL204 and AdGFPFasL virus (DU145 xenografts; LCL204 at 0, 72 and 144 hours followed by virus at 10 and 82 hours): effectively reduce the tumor burden
tumor growth, single agent (DU145 xenografts; LCL204 systemically at 0, 72 and 144 hours, virus 1×10^9 pfu at 10 and 82 hours): some modest effects
observable effect on the animal (DU145 xenografts; up to 75 mg/kg): no observable effect on the animal

Reference: US8592419B2, “Ceramides and apoptosis-signaling ligand” (MUSC Foundation for Research Development, priority 2004, dated 2013)
